Columns and labels:
[1] = tested on: piglets affected by dysentery; assay: dysentery in piglets; assay type: in vivo
Description: Experiments were performed with piglets weighing from 30 to 40 kgs, which were affected by dysentery.
Nevertheless, symptoms reappeared six to seven hours later in one group of animals. This factor rendered repeated administration of the drug necessary.

metabolic products = assay type: in vivo; details: metabolite
[2] = tested on: Sprague-Dawley Rats' Lipid Metabolism and Serum Lipoproteins; details: reducing serum cholesterol; cited from earlier work
[3] = tested on: proctitis attributable to radiation therapy; details: in vivo
From the text: B., a patient who was […], complained of burning sensations in the anus, along with frequent and painful urination, after having received radiation therapy for a period of forty-five days. During a rectosigmoidoscopy examination, intense edema and contact hemorrhaging within the rectal mucosae were observed above the tumor. The diagnosis was: proctitis and cystitis arising from radiation therapy. On account of a lack of specific therapeutic measures, the drug was prescribed for the patient according to a dose of 100 mg per day.

[4] = aqueous solutions, sodium salt
skin diseases = details: water-soluble applications and ointments

SMILES: Nc1ccc2c(=O)[nH][nH]c(=O)c2c1 [4-aminophthaloylhydrazide]
- therapeutic effect ([1]; 10, 25, and 50 mg/kg, third series): relatively insignificant

SMILES: Nc1ccc(C(=O)O)c(C(=O)O)c1 [5-aminophthalic acid]
- excretion unmodified (metabolic products): Most of the aminophthalic acid is expelled from the body without undergoing modification

SMILES: O=c1[nH][nH]c(=O)c2ccccc12 [2,3-dihydrophthalazine-1,4-dione]
- activity [2]: extremely high level of activity

SMILES: Nc1cccc2c(=O)[nH][nH]c(=O)c12
- effectiveness in proctitis attributable to radiation therapy [3]: effective for proctitis attributable to radiation therapy
- time to improvement of condition, diarrhea ceased ([1]; 50 mg/kg, first series): sixty
- time to reappearance of symptoms ([1]; 50 mg/kg, first series, one group of animals): six to seven
- period remaining fully active [4]: sixty to eighty
- effectiveness in external use (skin diseases): more effective

Reference: patent US5543410A, “Pharmacological use of phthaloylhydrazide derivatives; combination and application thereof” (L.I.M.A.D. Limited, priority 1993, dated 1996)
